In US20160074405A1, “COMPOSITIONS AND METHODS FOR THE TREATMENT OF DRUG-INDUCED HAND-FOOT SYNDROME” (Duke University, priority 2009, published 2016):

Legend:
[1] = PPE grade observed in the treated patients under anti-cancer drug; assay type: in vivo, human; conditions: individual patient before sildenafil
Method: (§1) The first patient had both metastatic pancreatic cancer and a history of mild Raynaud's syndrome.
(§2) The third patient was a person with a gastro-intestinal stromal tumor (GIST) refractory to imatinib, who was being treated with sunitinib. […] They were treated with topical 2% sildenafil three times daily. To ensure activity in the setting of potentially significant costs for custom formulation, this patient applied topical sildenafil to only their left hand. […] This patient later was dosed with 1% topical sildenafil once per week. In addition, this patient experienced sunitinib-induced gastrointestinal toxicities (enteritis, diarrhea), which were treated with oral sildenafil to allow systemic absorption. The initial dose was 50 mg oral sildenafil daily. […] Thereafter lower doses were used on an as needed basis, including a quarter tablet (50 mg size) given once or twice per week.
(§3) A fourth patient was a person with metastatic angiosarcoma, who was treated with sunitinib for over four years.

[2] = patients treated with the agent; cited from earlier work
[3] = Topical sildenafil treatment of patients with drug-induced PPE (case reports); assay type: in vivo, human
Method: Four patients were treated with topical sildenafil for PPE, two with PPE related to capecitabine and two with PPE related to sunitinib. […] This initial clinical experience was outside the context of formal clinical trials, since no such trials were available.
as §1
Administration of 5FU was held due to the severity and persistence of the hand-foot syndrome. Topical sildenafil was applied to only the left hand.
as §2, §3

[4] = Oral sildenafil treatment of sunitinib-induced gastrointestinal toxicities and hand-foot syndrome (case report); assay type: in vivo, human; conditions: third patient; 50 mg oral sildenafil daily
Method: as §2

[5] = Side effects of sildenafil treatment in the PPE patients; assay type: in vivo, human
Method: The third patient was a person with a gastro-intestinal stromal tumor (GIST) refractory to imatinib, who was being treated with sunitinib. Despite a gratifying response to sunitinib, they experienced grade 3 sunitinib-related PPE that required frequent dose holding and reduction. They were treated with topical 2% sildenafil three times daily. To ensure activity in the setting of potentially significant costs for custom formulation, this patient applied topical sildenafil to only their left hand. […] After only 3 doses (1 day) they noticed an improvement on the tenderness and redness of their hands. […] The improvement was “like day and night.” The right hand had all of these complications. These were severe enough that the patient had difficulty physically closing their hand more than halfway due to skin thickening as well as pain. Their left hand was completely flexible. After administration to both hands, they were able for the first time in many months to shake hands and make a first without difficulty or pain and they restarted playing their guitar in their church choir. This patient later was dosed with 1% topical sildenafil once per week. In addition, this patient experienced sunitinib-induced gastrointestinal toxicities (enteritis, diarrhea), which were treated with oral sildenafil to allow systemic absorption. The initial dose was 50 mg oral sildenafil daily. […] Thereafter lower doses were used on an as needed basis, including a quarter tablet (50 mg size) given once or twice per week.
Since each of these patients initially had only one affected skin region treated, followed by treatment of the other similarly affected regions, each patient was able to serve as her/his own control.

CCCCCOC(=O)Nc1nc(=O)n([C@@H]2O[C@H](C)[C@@H](O)[C@H]2O)cc1F [capecitabine]
PPE grade under anti-cancer treatment [1]: 2-3 grade | frequency of any grade (grade 1-3) PPE [2]: ≤ 54% | frequency of severe (grade 3) PPE [2]: ≤ 17%

CCCc1nn(C)c2c(=O)[nH]c(-c3cc(S(=O)(=O)N4CCN(C)CC4)ccc3OCC)nc12 [sildenafil]
patient's pain and size and depth of the digital ulcers ([3]; first patient (capecitabine, Raynaud's), topical 2% applied to ulcers, within a week): marked improvement | PPE of the treated palm ([3]; first patient, topical, full palm of one hand): significant improvement | PPE of treated right hand and foot ([3]; fourth patient (sunitinib 37.5 mg per day, grade 1 at start), topical 2% in cold cream base): improved markedly | time to marked improvement of treated right hand and foot ([3]; fourth patient, topical 2% in cold cream base): 1-2 weeks | pain and redness of the left hand ([3]; second patient (capecitabine/5FU regimens), topical to left hand only, by day 8): improvement | hand-foot syndrome in both hands ([3]; second patient, by day 72): resolved | tenderness and redness of hands ([3]; third patient (sunitinib, grade 3 PPE), topical 2% three times daily, left hand, after 3 doses (1 day)): improvement | multiple blisters, cracks, and callousness ([3]; third patient, topical 2% three times daily, after 4 weeks): resolved essentially completely | pain, redness and blisters ([3]; third patient, topical 2% three times daily, by one week): markedly improved | PPE-related symptoms ([3]; topical sildenafil, patients with capecitabine- or sunitinib-related PPE): significantly improved | gastrointestinal toxicities and hand-foot syndrome [4]: rapidly improved | time to improvement of gastrointestinal toxicities and hand-foot syndrome [4]: ≤ 1 days | adverse impact on cancer's response to treatment ([5]; all treated patients): no patient had any suggestion of an adverse impact | local or systemic side effects ([5]; all treated patients): No local or systemic side effects | side effects such as headache, chest pain, lightheadedness, spontaneous erections ([5]; third patient, topical 2% three times daily, month of treatment): no side effects

CNC(=O)c1cc(Oc2ccc(NC(=O)Nc3ccc(Cl)c(C(F)(F)F)c3)cc2)ccn1 [sorafenib]
frequency of any grade (grade 1-3) PPE [2]: ≤ 30% | frequency of severe (grade 3) PPE [2]: ≤ 8%

CCN(CC)CCNC(=O)c1c(C)[nH]c(/C=C2\C(=O)Nc3ccc(F)cc32)c1C [sunitinib]
PPE grade under anti-cancer treatment [1]: 3 grade | frequency of any grade (grade 1-3) PPE [2]: up to 21% | frequency of severe (grade 3) PPE [2]: up to 5%
